In DBAASP:
Converted amounts (≈) assume the structure as drawn. “And” between values parts separate entries of the source, which are not always exact repeats. Identical values can stand only once.

Assays:
Test in all cases: ≥ marks a high value that may be exact or a test limit, other limits are often not marked, values filed in µg/mL are converted to µM
Bacillus cereus AS1.126 = system: Bacillus cereus AS1.126
[1] = system: Candida albicans CMCC 98001
[2] = system: Enterobacter cloacae CGMCC 1.58
[3] = system: Enterococcus faecalis CGMCC 1.595
[4] = system: Enterococcus faecium CGMCC 1.2334
Escherichia coli AS1.349 = system: Escherichia coli AS1.349
[5] = system: Fusobacterium nucleatum CGMCC 1.2526
[6] = system: Klebsiella aerogenes CGMCC 1.876
[7] = system: Klebsiella pneumoniae subsp. pneumoniae CGMCC 1.176
[8] = system: Lactobacillus acidophilus CGMCC 1.1854
[9] = system: Lactococcus lactis AS1.1690
[10] = system: Pseudomonas aeruginosa CGMCC 1.860
[11] = system: Staphylococcus aureus AS1.72
[12] = system: Streptococcus mutans CGMCC 1.2500
[13] = system: Streptococcus salivarius CGMCC 1.2498
[14] = system: Streptococcus sanguinis CGMCC 1.2497
[15] = system: Acinetobacter baumannii ATCC 19606
[16] = system: Bacillus anthracis Sterne 34F2
[17] = system: Haemophilus influenzae ATCC 49247
[18] = system: Klebsiella pneumoniae NCTC 9633
[19] = system: Mycobacterium tuberculosis H37Ra
[20] = system: Pseudomonas aeruginosa 253
[21] = system: Pseudomonas aeruginosa 910
[22] = system: Pseudomonas aeruginosa 919
[23] = system: Staphylococcus aureus NRS 72
[24] = system: Staphylococcus aureus USA 300
[25] = system: Acinetobacter baumannii AB1
[26] = system: Acinetobacter baumannii AB2
[27] = system: Acinetobacter baumannii AB3
Acinetobacter baumannii = system: Acinetobacter baumannii
[28] = system: Klebsiella pneumoniae KP1
[29] = system: Klebsiella pneumoniae KP2
[30] = system: Klebsiella pneumoniae KP3
[31] = system: Klebsiella pneumoniae KP4
[32] = system: Pseudomonas aeruginosa TRPA 108
[33] = system: Pseudomonas aeruginosa TRPA 111
Pseudomonas aeruginosa = system: Pseudomonas aeruginosa
[34] = system: Staphylococcus aureus 4003
[35] = system: Staphylococcus aureus ATCC 43300
[36] = system: Staphylococcus aureus ATCC 6538
[37] = system: Staphylococcus aureus ATCC BAA-44
[38] = system: Staphylococcus aureus NRS 1
[39] = system: Staphylococcus aureus NRS 846
[40] = system: Staphylococcus aureus RN4220
[41] = system: Staphylococcus aureus USA 100
[42] = system: Staphylococcus aureus USA 400
[43] = system: Staphylococcus aureus VRSA4
[44] = system: Staphylococcus epidermidis NRS 101
[45] = system: Escherichia coli ATCC 25922
Escherichia coli = system: Escherichia coli
[46] = system: Mycobacterium tuberculosis CAS3
[47] = system: Mycobacterium tuberculosis FYX
[48] = system: Mycobacterium tuberculosis H37Rv
[49] = system: Mycobacterium tuberculosis WXY
[50] = system: Pseudomonas aeruginosa H103
[51] = system: Pseudomonas aeruginosa PAO1
[52] = system: Salmonella enterica serovar Typhimurium
[53] = system: Staphylococcus aureus ATCC 25923
Staphylococcus aureus = system: Staphylococcus aureus

With `CC[C@H](C)[C@H](N)C(=O)N[C@@H](CCCCN)C(=O)N[C@@H](CCCCN)C(=O)N[C@H](C(=O)N[C@H](C(=O)N[C@@H](CO)C(=O)N[C@@H](CCCCN)C(=O)N[C@H](C(=O)N[C@@H](CCCCN)C(=O)N[C@@H](CCCCN)C(=O)N[C@H](C(=O)N[C@@H](CC(C)C)C(=O)N[C@@H](CCCCN)C(N)=O)C(C)C)[C@@H](C)CC)C(C)C)[C@@H](C)CC` [IKKIVSKIKKVLK] the MIC (Bacillus cereus AS1.126) was 3.12 µM (≈ 4.76 µg/mL), the MIC [1] was 6.25 µM (≈ 9.53 µg/mL) and the MIC [2] was 7.81 µM (≈ 11.9 µg/mL). The MIC [3] was 7.81 µM (≈ 11.9 µg/mL), the MIC [4] was 7.81 µM (≈ 11.9 µg/mL) and the MIC (Escherichia coli AS1.349) was 6.25 µM (≈ 9.53 µg/mL). For the same compound, the MIC [5] was 6.25 µM (≈ 9.53 µg/mL), the MIC [6] was 7.81 µM (≈ 11.9 µg/mL) and the MIC [7] was 6.25 µM (≈ 9.53 µg/mL). The MIC [8] was 6.25 µM (≈ 9.53 µg/mL), the MIC [9] was 3.12 µM (≈ 4.76 µg/mL) and the MIC [10] was 6.25 µM (≈ 9.53 µg/mL). For the same compound, the MIC [11] was 6.25 µM (≈ 9.53 µg/mL), the MIC [12] was 6.25 µM (≈ 9.53 µg/mL) and the MIC [13] was 6.25 µM (≈ 9.53 µg/mL). It also gave an MIC [14] of 6.25 µM (≈ 9.53 µg/mL).

With `CC(C)[C@H](NC(=O)[C@H](Cc1c[nH]c2ccccc12)NC(=O)[C@H](CCCN=C(N)N)NC(=O)[C@H](Cc1c[nH]c2ccccc12)NC(=O)[C@H](Cc1c[nH]c2ccccc12)NC(=O)[C@H](CCCN=C(N)N)NC(=O)[C@@H](N)CCCN=C(N)N)C(=O)N[C@H](C(=O)N[C@@H](Cc1c[nH]c2ccccc12)C(N)=O)C(C)C` [RRWWRWVVW] the MIC [15] was 10 µM (≈ 14.3 µg/mL), the MIC [16] was 20 µM (≈ 28.6 µg/mL) and the MIC [17] was ≥ 40 µM. It also gave an MIC [18] of 2.5 µM (≈ 3.57 µg/mL), an MIC [19] of 20 µM (≈ 28.6 µg/mL) and an MIC [20] of 8 µM (≈ 11.4 µg/mL). For the same compound, the MIC [21] was 8 µM (≈ 11.4 µg/mL), the MIC [22] was 2 µM (≈ 2.86 µg/mL) and the MIC [23] was 20 µM (≈ 28.6 µg/mL). The MIC [24] was 20 µM (≈ 28.6 µg/mL).

`NC(N)=NCCC[C@H](NC(=O)[C@H](CCCN=C(N)N)NC(=O)[C@H](Cc1c[nH]c2ccccc12)NC(=O)[C@H](Cc1c[nH]c2ccccc12)NC(=O)[C@H](CCCN=C(N)N)NC(=O)[C@H](CCCN=C(N)N)NC(=O)[C@H](Cc1c[nH]c2ccccc12)NC(=O)[C@H](Cc1c[nH]c2ccccc12)NC(=O)[C@H](CCCN=C(N)N)NC(=O)[C@H](Cc1c[nH]c2ccccc12)NC(=O)[C@H](Cc1c[nH]c2ccccc12)NC(=O)[C@@H](N)CCCN=C(N)N)C(=O)O` [RWWRWWRRWWRR] gave an MIC [25] of 2.41 µM (≈ 5 µg/mL), an MIC [26] of 1.45 µM (≈ 3 µg/mL) and an MIC [27] of 5.31 µM (≈ 11 µg/mL). It also gave an MIC (Acinetobacter baumannii) of 2.7 µM (≈ 5.6 µg/mL), an MIC [28] of 13 µM (≈ 27 µg/mL) and an MIC [29] of 15.4 µM (≈ 32 µg/mL). The MIC [30] was 15.4 µM (≈ 32 µg/mL), the MIC [31] was 15.4 µM (≈ 32 µg/mL) and the MIC [32] was 1.93 µM (≈ 4 µg/mL). It also gave an MIC [33] of 1.45 µM (≈ 3 µg/mL), an MIC (Pseudomonas aeruginosa) of 3.3 µM (≈ 6.84 µg/mL) and an MIC [34] of 1.45 µM (≈ 3 µg/mL). It also gave an MIC [35] of 2 µM (≈ 4.14 µg/mL), an MIC [36] of 4 µM (≈ 8.29 µg/mL) and an MIC [37] of 4 µM (≈ 8.29 µg/mL). The MIC [38] was 1 µM (≈ 2.07 µg/mL), the MIC [39] was 16 µM (≈ 33.2 µg/mL) and the MIC [40] was 2 µM (≈ 4.14 µg/mL). For the same compound, the MIC [41] was 3.38 µM (≈ 7 µg/mL), the MIC [42] was 2 µM (≈ 4.14 µg/mL) and the MIC [43] was 5.66 µM (≈ 11.7 µg/mL). For the same compound, the MIC [44] was 4 µM (≈ 8.29 µg/mL).

`CC[C@H](C)[C@H](NC(=O)[C@H](CCCN=C(N)N)NC(=O)[C@H](CC(C)C)NC(=O)[C@H](CCC(N)=O)NC(=O)[C@@H](N)C(C)C)C(=O)N[C@@H](CCCN=C(N)N)C(=O)N[C@H](C(=O)N[C@@H](C)C(=O)N[C@H](C(=O)N[C@H](C(=O)N[C@@H](CCCN=C(N)N)C(=O)N[C@@H](C)C(N)=O)[C@@H](C)CC)C(C)C)C(C)C` [VQLRIRVAVIRA] was tested, and the MIC (Acinetobacter baumannii) was ≥ 45.9 µM, the MIC [45] was 23 µM (≈ 32 µg/mL) and the MIC (Escherichia coli) was 64.9 µM (≈ 90.4 µg/mL). For the same compound, the MIC [46] was ≥ 53.8 µM, the MIC [47] was 26.9 µM (≈ 37.5 µg/mL) and the MIC [48] was 21 µM and 26.9 µM. For the same compound, the MIC [49] was 13.5 µM (≈ 18.7 µg/mL), the MIC [50] was ≥ 53.8 µM and the MIC [51] was 91.8 µM (≈ 128 µg/mL). For the same compound, the MIC (Pseudomonas aeruginosa) was 64.9 µM (≈ 90.4 µg/mL), the MIC [52] was 23 µM (≈ 32 µg/mL) and the MIC [53] was 27.3 µM and 45.9 µM. The MIC (Staphylococcus aureus) was 64.9 µM (≈ 90.4 µg/mL).
